Assays:
[1] = hygroscopicity testing via dynamic vapor sorption (DVS); type: physicochemical; details: for hygroscopicity classification: DVS, class based on mass gain at 85% RH; for absorption of water (DVS): storage at 95% relative humidity for five hours
Method: Sorption isotherms were obtained using an SPS11-100n Sorptions Prufsystem from ProUmid (formerly Projekt Messtechnik). About 5 mg to about 20 mg of sample were placed into an aluminum sample plan on top of a microbalance and allowed to equilibrate at 50% relative humidity (RH) before starting the following applied measurement program. Humidity change rates of 5% per hour were used. The applied measurement program can be described as follows: • (1) 2 h at 50% RH • (2) 50→0% RH (5%/h); 5 h at 0% RH • (3) 0→95% RH (5%/h); 5 h at 95% RH • (4) 95→0% RH (5%/h); 5 h at 0% RH • (5) 0→95% RH (5%/h); 5 h at 95% RH • (6) 95→50% RH (5%/h); 2 h at 50% RH. The sample was recovered after completion of the isotherm and re-analyzed by XRPD. Hygroscopicity was classified based on the mass gain at 85% relative humidity (RH) relative to the initial mass as follows: deliquescent (sufficient water adsorbed to form a liquid), very hygroscopic (mass increase […]), hygroscopic (mass increase <15% but ≥2%), slightly hygroscopic (mass increase <2% but ≥0.2%), or non-hygroscopic (mass increase <0.2%).

[2] = type: physicochemical
Method: 53 mg of Sample 42 (Form A) and 47 mg of Sample (Form C) were suspended in 1 mL of an ethyl acetate/heptane (1:3) mixture at room temperature. After two hours of stirring at room temperature, one additional mL of the solvent mixture was added to the suspension. After another 1 hour of stirring, the suspension was seeded with Sample 42 and Sample 55 (about 10-20 mg). Further stirring was conducted at room temperature for one week. Then the suspension was filtered using a centrifugal unit filter (PTFE, 0.2 μm, 5000 rpm, room temperature).
The remaining substance from Sample 56 (approx. 42 mg) was further equilibrated in 0.5 mL of an ethyl acetate/heptane (1:3) mixture at room temperature After one month of stirring, the suspension was filtered using a centrifugal unit filter (PTFE, 0.2 μm, 5000 rpm, room temperature). […] The resulting Crystalline Form C of Example 27a is herein referred to as Sample 56A.
71 mg of Sample 42 (Form A) and 73 mg of Sample 55 (Form C) were suspended in 1 mL of an ethyl acetate/heptane (1:3) mixture at 60° C. After two hours of stirring at 60° C., one additional mL of the solvent mixture was added to the suspension. After another 1 hour of stirring, the suspension was seeded with Samples 42 and 55 (about 10-20 mg). Further stirring was conducted at 60° C. After four days of stirring, a solution with material on the glass side was obtained. Approx. […]

[3] = solubility in common organic solvents; type: physicochemical
[4] = system: fleas (Ctenocephalides felis); details: in vitro ingesting activity; cited from earlier work
[5] = in vivo; cited from earlier work

| SMILES | hygroscopicity classification [1] | absorption of water (DVS) [1] | relative stability of Form A versus Form C [2] | further results |
| --- | --- | --- | --- | --- |
| Cc1cc(C2=NO[C@@](c3cc(C(F)(F)F)cc(Cl)c3F)(C(F)(F)F)C2)ccc1C(=O)NCC(=O)NCC(F)(F)F [Crystalline Form A, 2-methyl-N-[2-oxo-2-(2,2,2-trifluoroethylamino)ethyl]-4-[(5S)-5-[3-chloro-2-fluoro-5-(trifluoromethyl)phenyl]-5-(trifluoromethyl)-4H-isoxazol-3-yl]benzamide] | slightly hygroscopic (slightly hygroscopic (mass increase <2% but ≥0.2%)) | ~0.5% | stable form at room temperature |  |
| Cc1cc(C2=NO[C@@](c3cc(C(F)(F)F)cc(Cl)c3F)(C(F)(F)F)C2)ccc1C(=O)NCC(=O)NCC(F)(F)F [amorphous form of the compound of Formula 1] [2-methyl-N-[2-oxo-2-(2,2,2-trifluoroethylamino)ethyl]-4-[(5S)-5-[3-chloro-2-fluoro-5-(trifluoromethyl)phenyl]-5-(trifluoromethyl)-4H-isoxazol-3-yl]benzamide] | slightly hygroscopic (slightly hygroscopic (mass increase <2% but ≥0.2%)) | ~1.5% |  | solid form after DVS measurement (XRPD) ([1]; XRPD after DVS): No crystallization occurred; solubility in common organic solvents [3]: high solubility |
| Cc1cc(C2=NO[C@@](c3cc(C(F)(F)F)cc(Cl)c3F)(C(F)(F)F)C2)ccc1C(=O)NCC(=O)NCC(F)(F)F [Crystalline Form B, 2-methyl-N-[2-oxo-2-(2,2,2-trifluoroethylamino)ethyl]-4-[(5S)-5-[3-chloro-2-fluoro-5-(trifluoromethyl)phenyl]-5-(trifluoromethyl)-4H-isoxazol-3-yl]benzamide] |  | up to 1.2% |  |  |
| Cc1cc(C2=NO[C@@](c3cc(C(F)(F)F)cc(Cl)c3F)(C(F)(F)F)C2)ccc1C(=O)NCC(=O)NCC(F)(F)F [compound of Formula 1, 2-methyl-N-[2-oxo-2-(2,2,2-trifluoroethylamino)ethyl]-4-[(5S)-5-[3-chloro-2-fluoro-5-(trifluoromethyl)phenyl]-5-(trifluoromethyl)-4H-isoxazol-3-yl]benzamide] |  |  |  | EC50 [4]: < 1 ppm; half-life [5]: 50 days |
| Cc1cc(C2=NO[C@@](c3cc(C(F)(F)F)cc(Cl)c3F)(C(F)(F)F)C2)ccc1C(=O)NCC(=O)NCC(F)(F)F [Form C, 2-methyl-N-[2-oxo-2-(2,2,2-trifluoroethylamino)ethyl]-4-[(5S)-5-[3-chloro-2-fluoro-5-(trifluoromethyl)phenyl]-5-(trifluoromethyl)-4H-isoxazol-3-yl]benzamide] |  |  | stable form at 30° and above |  |

From patent publication US20240383867A1, “CRYSTALLINE FORMS OF ISOXAZOLINE COMPOUND” (ELANCO US, INC., priority 2021, published 2024)
